# In paper PMC12495412, “Coumarin/nitrogen-bearing heterocyclic hybrid-loaded electrospun PMMA/PVP nanofibrous scaffolds for accelerating topical wound healing rates: synthesis and in vitro bio-evaluation” (RSC Advances, 2025):
# What was measured:
# A549 cells = test: MTT anticancer assay; type: cell-based, human; conditions: Homo sapiens, A549, lung carcinoma cells, 48 h
# Text: (§1) MTT assay: the normal cell line (Wi-38), colon cancer (Caco-2), lung cancer (A549), and breast cancer (MDA) cell lines were sourced from ATCC, USA. All different cell lines were cultivated and preserved in DMEM medium (SERANA, Germany), accompanied by 10% FBS (Gibco, USA) and 1% Pen/Strep solution (Lonza, USA). The newly prepared derivatives at various doses were considered for their anticancer activity and their safety on normal cells, applying MTT (3-[4, 5-dimethylthiazol]-2, 5-diphenyltetrazolium bromide) methods.[22] At first, all normal and cancer cell lines (1.0 ×10^4) were inoculated in 4 antiseptic 96-well tissue culture microplates and incubated for 24 h in a CO2 incubator. After cell attachments, the prepared derivatives were added to both normal Wi-38 cells at diverse concentrations of (6.25–200 μg mL^−1, 2-fold) and cancer cells at different concentrations of (3.125–100 μg mL^−1, 2-fold) in triplicate and incubated for another 48 h at 37 °C in a CO2 incubator with an adjusted concentration of 5%. After that, the treated cells were cleaned three times with PBS to remove debris and dead cells. Next, 200 μL of 0.5 mg mL^−1 MTT dye solution in PBS was mixed in each well, and the cells were further kept for 3 h at 37 °C in a 5% CO2 incubator. After that, MTT was removed and 200 μL of DMSO was added to each well. The optical density (OD) was recorded at 570 nm via a microplate reader (B.M.G. LabTech, Germany). Basic cells (untreated) were utilized as negative control cells, and 5-fluorouracil (5-FU) was included as a standard chemotherapy drug. The qualified cell viability (%) was evaluated as in equation (eqn (1)):1 Relative cell viability (%) = […] A1 is the OD of the examined derivative, A0 is the OD of the standard, and AU is the OD of the untreated cells.
# (§2) Anticancer activity assay: the anticancer effect of each derivative was assessed by evaluating the half-maximal inhibitory concentration (IC50) value via the GraphPad Prism 7.0 software. However, SI (selective index) values of each derivative were estimated by splitting the IC50 value of healthy cells by the IC50 value of malignant cells, as previously reported.[23] The effects of the created derivatives on the morphology of MDA cells were evaluated at IC50 doses and captured by phase-contrast microscopy (Olympus, Germany) in comparison to untreated control cells.
# MDA cells = test: MTT anticancer assay; type: cell-based, human; conditions: Homo sapiens, Breast carcinoma cell, 48 h
# Text: as §1, §2
# Caco-2 cells = test: MTT anticancer assay; type: cell-based
# Text: as §1, §2
# Wi-38 cells = test: MTT cytotoxicity assay, normal cells; type: cell-based; conditions: WI-38, normal human lung fibroblast cells, 48 h
# Text: as §1, §2
# all applied pathogens = test: Agar-well diffusion of synthesized compounds, whole panel; type: cell-based
# Text: (§3) The antimicrobial activity of the prepared compounds was estimated through an agar-well diffusion method as adapted from the modified Kirby–Bauer protocol.[24] In this test, microbial pathogens were applied, including Staphylococcus aureus ATCC 25923 (S. aureus), Streptococcus mutans ATCC 25175 (S. mutans), Bacillus cereus ATCC 19637 (B. cereus), Bacillus aureus ATCC 25923 (B. aureus), Bacillus epidermidis ATCC 14990 (B. epidermidis), and Bacillus subtilis ATCC 11774 (B. subtilis) as Gram-positive bacteria, and Pseudomonas aeruginosa ATCC 27853 (P. aeruginosa), Klebsiella pneumonia ATCC 13883 (K. pneumonia), and Salmonella typhimurium ATCC 14028 (S. typhimurium), Salmonella pneumoniae ATCC 10031(S. pneumoniae), Escherichia coli ATCC 10536 (E. coli), and Salmonella paratyphi ATCC 9150 (S. paratyphi) as Gram-negative bacteria. Additionally, Candida albicans (ATCC 10231), Candida krusei ATCC 6258 (C. krusei), Candida glabrata ATCC 66032 (C. glabrata), andCandida parapsilosis ATCC 22019 (C. parapsilosis) were applied as models of unicellular fungi. The pre-inoculation cultures of the pathogens were prepared on Muller–Hinton broth and cultivated for 24 h at 37 °C. The agar-well test was prepared on Muller–Hinton agar with 100 μL of each pathogen pre-culture (0.5 McFarland conc.) and uniformly distributed on the plate surface. Under aseptic conditions, six wells were created on the agar surface using a sterile corkborer (9 mm). To each well, 100 μL of the prepared compound (10 mg mL^−1) was separately inserted into each plate. All plates were incubated for 24 h at 37 °C; the established inhibition zones (Halo-zones) surrounding the wells indicated positive antimicrobial activity and were stated as the radius of the inhibition zone (mm).
# K. pneumonia = test: Agar-well diffusion of synthesized compounds; type: cell-based, Klebsiella pneumonia ATCC 13883; conditions: Klebsiella pneumoniae, 100 μL of 10 mg mL^−1 per well, 24 h, 37 °C
# Text: as §3, with “Under aseptic conditions, six wells were created on the agar surface using a sterile corkborer (9 mm). To each well, 100 μL of the prepared compound (10 mg mL^−1) was separately inserted into each plate. All plates were incubated for 24 h at 37 °C; the established inhibition zones (Halo-zones) surrounding the wells indicated positive antimicrobial activity and were stated as the radius of the inhibition zone (mm).” left out
# P. aeruginosa = test: Agar-well diffusion of synthesized compounds; type: cell-based, Pseudomonas aeruginosa ATCC 27853; conditions: Pseudomonas aeruginosa, 100 μL of 10 mg mL^−1 per well, 24 h, 37 °C
# Text: as §3, with “Under aseptic conditions, six wells were created on the agar surface using a sterile corkborer (9 mm). To each well, 100 μL of the prepared compound (10 mg mL^−1) was separately inserted into each plate. All plates were incubated for 24 h at 37 °C; the established inhibition zones (Halo-zones) surrounding the wells indicated positive antimicrobial activity and were stated as the radius of the inhibition zone (mm).” left out
# S. mutans = test: Agar-well diffusion of synthesized compounds; type: cell-based, Streptococcus mutans ATCC 25175; conditions: Streptococcus mutans, 100 μL of 10 mg mL^−1 per well, 24 h, 37 °C
# Text: as §3
smiles,measurement,setting,value
"O=C(Nc1ccc(Nc2ccnc3cc(Cl)ccc23)cc1)c1cc2ccccc2oc1=O [Compound A, N-(4-((7-chloroquinolin-4-yl)amino)phenyl)-2-oxo-2H-chromene-3-carboxamide]",IC50,A549 cells,11.5 ± 1.75 µg/mL
same,IC50,MDA cells,5.46 ± 0.27 µg/mL
same,IC50,"Caco-2 cells; Homo sapiens, Caco-2, colon carcinoma cells, MTT, 48 h",9.03 ± 1.53 µg/mL
same,SI Caco-2,Caco-2 cells; IC50 Wi-38 / IC50 Caco-2,15.38 ± 1.33
same,IC50,Wi-38 cells,139 ± 12 µg/mL
same,Antimicrobial activity,all applied pathogens,wide-spectrum antibacterial activity
same,zone of inhibition at 10 mg/mL,K. pneumonia,~14 mm
same,zone of inhibition at 10 mg/mL,P. aeruginosa,~14 mm
same,zone of inhibition at 10 mg/mL,S. mutans,~14 mm
